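The compound was tested at five concentrations on cells cultured in 96-well plates, with a 48-hour exposure period. TGI marks complete inhibition of growth.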
How the values were obtained:
Assay in all cases: NCI anticancer screen, dose series, 48 h
SF-268 CNS = tested on: SF-268 CNS
A549 NSCLC = tested on: A549 NSCLC
K-562 leukemia = tested on: K-562 leukemia
KM12 colon = tested on: KM12 colon
EKVX NSCLC = tested on: EKVX NSCLC
SNB-19 CNS = tested on: SNB-19 CNS
MCF7 breast = tested on: MCF7 breast
IGROV1 ovarian = tested on: IGROV1 ovarian
COLO 205 colon = tested on: COLO 205 colon
OVCAR-8 ovarian = tested on: OVCAR-8 ovarian
NCI/ADR-RES ovarian = tested on: NCI/ADR-RES ovarian
UACC-257 melanoma = tested on: UACC-257 melanoma
M14 melanoma = tested on: M14 melanoma
MOLT-4 leukemia = tested on: MOLT-4 leukemia
A498 renal = tested on: A498 renal
MDA-MB-435 = tested on: MDA-MB-435
BT-549 breast = tested on: BT-549 breast

| Structure (SMILES) | TGI (SF-268 CNS) [µM] | TGI (A549 NSCLC) [µM] | TGI (K-562 leukemia) [µM] | TGI (KM12 colon) [µM] | TGI (EKVX NSCLC) [µM] | TGI (SNB-19 CNS) [µM] | TGI (MCF7 breast) [µM] | TGI (IGROV1 ovarian) [µM] | TGI (COLO 205 colon) [µM] | TGI (OVCAR-8 ovarian) [µM] | TGI (NCI/ADR-RES ovarian) [µM] | TGI (UACC-257 melanoma) [µM] | TGI (M14 melanoma) [µM] | TGI (MOLT-4 leukemia) [µM] | TGI (A498 renal) [µM] | TGI (MDA-MB-435) [µM] | TGI (BT-549 breast) [µM] |
| --- | --- | --- | --- | --- | --- | --- | --- | --- | --- | --- | --- | --- | --- | --- | --- | --- | --- |
| Cc1cc(=O)oc2cc(OCC(O)COC(C)C)ccc12 (configuration not stated) | > 100 | > 100 | > 100 | > 100 | > 100 | > 100 | > 100 | > 100 | > 100 | > 100 | > 100 | > 100 | > 100 | > 100 | – | – | – |
| CCOC(=O)CC(NC(=O)c1[nH]cnc1/N=N/N(C)C)C(=O)OCC (configuration not stated) | > 100 | > 100 | > 100 | > 100 | > 100 | > 100 | – | > 100 | > 100 | > 100 | – | > 100 | > 100 | > 100 | > 100 | – | – |
| C=CC1CN(C(=O)OCC)N(C(=O)OCC)C1CCc1ccccc1 (configuration not stated) | > 100 | > 100 | > 100 | > 100 | > 100 | > 100 | > 100 | > 100 | > 100 | > 100 | > 100 | > 100 | > 100 | > 100 | – | > 100 | – |
| CC(=O)O[C@H]1C(=O)[C@@]2(C)[C@H]([C@H](OC(=O)c3ccccc3)[C@]3(O)C[C@H](OC(=O)[C@H](O)[C@@H](NC(=O)c4ccco4)c4ccccc4)C(C)=C1C3(C)C)[C@]1(OC(C)=O)CO[C@@H]1C[C@@H]2O | > 12.5 | > 12.5 | < 0.00125 | > 12.5 | > 12.5 | > 12.5 | > 12.5 | > 12.5 | – | > 12.5 | > 7.75 | – | > 12.5 | > 12.5 | > 12.5 | – | – |
| Cn1c2c(c3ccccc31)CCN1C(=O)CCC21 (configuration not stated) | > 10 | – | > 10 | > 10 | > 10 | > 10 | > 10 | > 10 | > 10 | > 10 | > 10 | > 10 | > 10 | > 10 | > 10 | > 10 | – |
| CC1C2C=C(O)C(=O)C(C2=O)C1c1ccccc1 (configuration not stated) | > 100 | > 100 | > 100 | > 100 | > 100 | > 100 | – | > 100 | > 100 | > 100 | – | > 100 | > 100 | > 100 | > 100 | – | – |
| CSCSCC(CO)NC(=O)/C(C)=C\c1c(C)[nH]c(=O)[nH]c1=O (configuration not stated) | > 250 | > 250 | > 250 | > 250 | > 250 | > 250 | > 250 | > 250 | > 250 | > 250 | > 250 | > 158 | – | > 250 | > 250 | – | – |
| CCOC(=O)c1c(NC(=S)Nc2ccc(Cl)cc2)sc2c1CCN(C)C2 | > 100 | > 100 | > 100 | > 100 | > 100 | > 100 | > 100 | > 100 | > 100 | > 100 | > 100 | > 100 | > 100 | > 100 | > 100 | – | > 100 |
| COC1(OC)C2(Cl)C(Cl)=C(Cl)C1(Cl)C1C2C2CC1(C(=O)O)c1ccccc12 (configuration not stated) | 55.8 | > 100 | 43.2 | – | – | > 100 | – | 69.5 | 51.1 | 88.3 | – | 47.4 | 32 | 43.3 | > 100 | – | – |
| CC1=CC[C@@]2(C)CC[C@](O)(C(C)C)C2C(OC(=O)c2ccccc2)C1 (some centres not stated) | 51.7 | 37.3 | 47.8 | 40.3 | 32.3 | 40.5 | 34.4 | 30.6 | 43 | 37.5 | 41.5 | 35.1 | 37.8 | 43.5 | 50.8 | 93.2 | – |
| Cc1ccc2c(=O)cc(-c3ccc(C)s3)[nH]c2n1 | > 74 | > 33.8 | > 100 | 15.9 | > 100 | > 100 | > 100 | > 50.4 | 2.29 | > 28.3 | 0.676 | > 100 | 55.9 | > 100 | > 70.9 | – | > 100 |
| CC(C)CC(N)C(=O)Nc1ccc2ccccc2c1 (configuration not stated) | > 100 | > 100 | > 100 | > 100 | > 100 | > 100 | > 100 | > 100 | > 100 | > 100 | > 100 | > 100 | > 100 | > 100 | > 100 | – | > 100 |
| CCOC(=O)c1nc2cc(C(F)(F)F)ccc2nc1Nc1ccc(C(=O)OC)s1 | > 100 | > 100 | > 100 | > 100 | > 100 | > 100 | – | > 100 | 44.5 | > 100 | > 100 | > 100 | > 100 | > 100 | 81.6 | > 100 | 74.6 |
| Cn1cc2ccccc2c1-c1nc(F)nc(Oc2ccc3c(c2)CC[C@@H]2C3CC[C@@]3(C)C2C[C@H](O)[C@@H]3O)n1 (some centres not stated) | 36.8 | 34.1 | 42.8 | 36.1 | 40.7 | 29.5 | – | 45.4 | 32.4 | 34.1 | – | 81.6 | 32.2 | 26.1 | 47 | – | – |
| Fc1ccc2c3c([nH]c2c1)CCN(Cc1ccccc1)C3 | 49.2 | 45.5 | 41 | 29 | 48.7 | 30.8 | 31.3 | 42.5 | 39.4 | 39.6 | 71 | 30.6 | 34.5 | 42.5 | 31.7 | 34.3 | – |

From PubChem BioAssay (NCI)
